# Literature values in US20140371322A1, “Phenoxybenzamine Transdermal Composition” (PROFESSIONAL COMPOUNDING CENTERS OF AMERICA, priority 2013, published 2014).
# Experiments:
# [1] = weak base
compound,measurement,setting,value
CC(COc1ccccc1)N(CCCl)Cc1ccccc1 (centres unmarked) [phenoxybenzamine],octanol/water log P partition coefficient,,4.6
same,pka (dissociation constant),[1],6.58
